For data set [1], the target named is T1, Bax (Homo sapiens, UniProt Q07812). Format: biochemical. Conditions: 100 nM Bax, 10 μM compound or 20 nM cBid/Bim, no membranes, DSS.
The test system of a further data set is Wt BMK cells. Nature of the data set: Live-cell imaging of cell death. Format: cell-based, mouse. Conditions: for effect on apoptosis of Wt compared with DKO cells (annexin V staining): Wt versus DKO BMK cells, among the five compounds.
The next data set deals with C126A Bax (Homo sapiens, UniProt Q07812, C126A). Conditions: mitochondria, 20 nM Bax, 10 μM compound.
Chain of C126A Bax (Q07812 whole entry C126A): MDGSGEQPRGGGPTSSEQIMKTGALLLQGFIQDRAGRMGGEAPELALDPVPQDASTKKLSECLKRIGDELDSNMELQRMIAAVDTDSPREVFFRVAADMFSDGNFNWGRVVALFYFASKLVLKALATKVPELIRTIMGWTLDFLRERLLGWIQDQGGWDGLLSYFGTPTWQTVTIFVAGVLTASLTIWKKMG
Data set [2] deals with Bax−/− Bak−/− (DKO) BMK cells. Nature of the data set: Live-cell imaging of cell death. It is filed as cell-based, mouse. Conditions: 24 h.
The target in data set [3] is T1, Bax. Format: biochemical. As to conditions: 100 nM Bax, 10 μM compound, DSS.
In data set [4] the target is T1, Bax. Briefly: biochemical. It is filed as biochemical.
For data set [5], the target named is T1, Bax. Nature of the data set: biochemical.

Counter-ions that a name gives are not always drawn. Like-named read-outs stand apart in the source and are kept apart here.

One may read the EC50 as the concentration giving half of the maximal effect.

T1 sequence (Q07812 whole entry): as the sequence (Q07812 whole entry C126A) above, with A126C counted along it

On to `O=c1c2ccccc2[se]n1-c1ccccc1` [Ebselen, ebselen], for which, on Bax [1], the “formation of dimers and higher-order Bax oligomers in solution” value was “pronounced effects”. In addition, the toxicity to cells entry in the data set on Wt BMK cells (Wt BMK cells, 24 h) is “not toxic”; in data set [2] (DKO BMK cells), “not toxic”. The “activation of C126A Bax” value on C126A Bax is on record as “almost completely resistant”.

In the case of `CC(=O)[O][Hg][c]1ccccc1` [PMA, phenylmercuric acetate], the “effect on apoptosis of Wt compared with DKO cells (annexin V staining)” value in the data set with Wt BMK cells is given as “most pronounced effects”. Moreover, at Bax [3], the “Bax oligomerization (higher-order complexes) in liposomes” value was “most pronounced effects”. For the same compound, the EC50 at Bax [4] (read-out: EC50 in mitochondria, 20 nM Bax, mitochondria from Bax−/− Bak−/− BMK cells, Smac–mCherry release) was 1.3 µM.

Turning to `CC1=CC(=O)c2c(O)cccc2C1=O` [Plumbagin, plumbagin], the EC50 was greater than 3 µM on Bax [5] and 1.5 µM on Bax [4]. The “effect on apoptosis of Wt compared with DKO cells (annexin V staining)” value in the data set with Wt BMK cells is reported as “most pronounced effects”.

`CC(C)N(CCC(=O)c1ccc2ccccc2c1)Cc1ccccc1` [ZM, ZM39923 hydrochloride]: the EC50 at Bax [5] was greater than 3 µM; with Wt BMK cells (Mus musculus, 24 h, read-out: EC50 of cell kill) it was roughly 10 µM; in data set [2] (Mus musculus, read-out: EC50 of cell kill) it was roughly 10 µM; on Bax [4], 3.5 µM. Further, the “activation of C126A Bax” value on C126A Bax is “almost completely resistant”.

In the case of “Bim: pro-apoptotic BH3 protein, recombinant, positive control for Bax oligomerization”, the “formation of dimers and higher-order Bax oligomers in solution” value in the data set with Bax [1] is on record as “no effects”.

These data come from publication PMC4847155 (Biochemical Journal, 2016).
